Values quoted from earlier work as cited in patent US20210145863A1, “LUBRICATED SUBSTRATES COMPRISING LAMBDA-CARRAGEENAN” (priority 2018, published 2021).

Test system: HPV
Conditions: in vitro (Buck, C. B., et al.)

In the case of lambda-carrageenan, the “Activity against HPV” value is given as “active”.
